Measurements from patent US20180021319A1, “COMPOSITIONS AND METHODS FOR TREATING GASTROINTESTINAL INFECTIONS” (The Regents of the University of California, priority 2015, published 2018).

Tested on: Helicobacter pylori
Experiment: Dual therapy of AGN 201904 with amoxicillin to treat H. pylori infection
Format: in vivo
Conditions: AGN 201904 with amoxicillin alone (dual therapy), compared to standard H. pylori infection therapies

COc1ccc2c(c1)nc([S+]([O-])Cc1ncc(C)c(OC)c1C)n2S(=O)(=O)c1ccc(OCC(=O)O)cc1 (centres unmarked) [AGN 201904]
H. pylori eradication rate: higher eradication rate | H. pylori resistance: no H. pylori resistance
